From patent US20090011974A1, “Scavenger Receptor B1 (Cla-1) Targeting for the Treatment of Infection, Sepsis and Inflammation” (priority 2002, published 2009)
Entries after “also recorded” stand apart in the source; their conditions may differ. Where no end group is shown, it is not given here.

Legend:
THP-1 cells [1] = assay: LTA, Gro-EL and HSP60 stimulated IL-8/IL-6 production in THP-1 cells; assay type: cell-based, human; settings: 1 μg/ml LTA or Gro-EL, 10-200 fold excess of peptide
Procedure: (§1) THP-1 and CLA-1 overexpressing HeLa cells. Human monocyte-macrophages, THP-1 (ATCC [American Type Culture Collection] TIB 71), are grown in 48-well plates in RPMI 1640 medium supplemented with 10% fetal calf serum (FCS), penicillin (100 U/ml), and streptomycin (100 μg/ml). All experiments involving LPS-induced interleukin production utilize the same media except that 1% FCS was used. Hela cells were cultured as previously reported (Vishnyakova, T. G. et al. (2003) “BINDING AND INTERNALIZATION OF LIPOPOLY[…] CLA-1, A HUMAN ORTHOLOGUE OF RODENT […] RECEPTOR B1,” J. Biol. Chem 278:22771-22780).
Assays for cytokines and lactate dehydrogenase (LD).

CLA-1 [2] = target: T1, CLA-1 (Homo sapiens, UniProt Q8WTV0); assay: Confocal uptake of Alexa/Bodipy labelled ligands in CLA-1 expressing versus mock transfected HeLa cells; assay type: cell-based; settings: for uptake in CLA-1 transfected HeLa cells compared with mock-transfected control: labelled ligand, confocal microscopy
T1 construct: using the expression plasmid pTRE2 (Clontech, Pal Alto, Calif.), encoding a CLA-1 protein (pTRE2-CLA-1); expressed in transfected cells; host or cells: HeLa (Tet-off) cells (Clontech), stably co-transfected with pTRE2-CLA-1 and pTK-Hyg and selected with hygromycin
T1 sequence (Q8WTV0 1-509 isoform Q8WTV0-2): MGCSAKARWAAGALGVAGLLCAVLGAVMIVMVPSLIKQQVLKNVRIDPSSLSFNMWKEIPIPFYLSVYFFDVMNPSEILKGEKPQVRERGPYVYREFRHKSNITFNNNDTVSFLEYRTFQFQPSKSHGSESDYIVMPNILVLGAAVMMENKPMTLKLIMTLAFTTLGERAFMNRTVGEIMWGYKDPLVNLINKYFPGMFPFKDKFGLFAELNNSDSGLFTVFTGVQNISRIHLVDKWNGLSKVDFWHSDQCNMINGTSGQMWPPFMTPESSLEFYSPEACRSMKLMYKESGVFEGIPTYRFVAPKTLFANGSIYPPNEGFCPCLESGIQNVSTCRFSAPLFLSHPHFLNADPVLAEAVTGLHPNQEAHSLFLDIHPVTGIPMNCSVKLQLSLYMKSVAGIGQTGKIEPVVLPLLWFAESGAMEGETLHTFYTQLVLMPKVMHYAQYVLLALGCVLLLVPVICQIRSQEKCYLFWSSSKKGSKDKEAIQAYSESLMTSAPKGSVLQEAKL
Procedure: Preparation of BODIPY-LPS and Alexa-568 HDL, Lipid-free ApoA-I, L-37PA, L2D-37PA and 18A. HDL, apoA-I, L-37PA, L2D-37PA and 18A are conjugated with Alexa-568, SE (Molecular Probes, protein labeling kit) following the kit instructions. The Alexa ligands are analyzed by 10-20% Tricine-SDS peptide gel electrophoresis. Gels are scanned using Variable Mode Imager, Typhoon 9200, Molecular Dynamics. Alexa-labeled preparations of HDL, apolipoproteins and the peptides are found in appropriate positions with molecular masses of 28, 5 and 2.5 kDa for apoA-I, L-37PA and 18PA, respectively.
(§2) HeLa cells cultured on glass micro-slides are incubated with 5 μg/ml of Alexa568 HDL, 1-0.5 μg/ml of Alexa 568 apoA-I, 1-0.5 μg/ml of Alexa 568 L-37PA or 0.5 μg/ml Bodipy-LPS for 1-2 h in a CO2 incubator in DMEM containing 1 mg/ml BSA. […] For co-localization, Bodipy-LPS and Alexa 568-HDL or Bodipy-LPS and Alexa 568-L-37PA were used at the same concentrations of 0.5 μg/ml. Fluorescence was viewed with a Zeiss 510 laser scanning confocal microscope, using a krypton-argon-Omnichrome laser with excitation wavelengths of 488 and 568 nm for Bodipy-LPS and Alexa-568 labels, respectively.

[3] = Limulus amebocyte lysate (LAL) assay for LPS incubated with peptides; settings: 10 ng/ml LPS, 10 μg/ml peptide, 37° C., 24 h; for effect on LAL activity of LPS in the absence of bivalent cations: PBS; for effect on LAL activity of LPS in media containing bivalent cations: RPMI-1640 1% FCS or DPBS
Source text: Limulus Amebocyte Lysate (LAL) Assay for LPS.
Limulus amebocyte lysate (LAL) assay for LPS.

[4] = system: CLA-1 overexpressing HeLa cells; assay: Bodipy-LPS uptake in HeLa cells in the presence of competitors; assay type: cell-based, human; settings: for effect on Bodipy-LPS uptake (surface binding and internalization): 100-fold excess of peptide, HeLa cells
Procedure: HeLa cells cultured on collagen-coated glass micro-slides are incubated with 5 μg/ml of Alexa 568 HDL, 1-0.5 μg/ml of Alexa 568 apoA-I, 1-0.5 μg/ml of Alexa 568 apoA-II or 0.5 μg/ml Bodipy-LPS for 1-2 hour in a CO2 incubator in DMEM containing 20 mg/ml BSA. […] Imaging is performed in PBS containing 0.4 mg/ml of Trypan Blue as the quenching agent. […] For co-localization, Bodipy-LPS and Alexa-568-apoA-I are used at the same concentration of 0.5 μg/ml. A Nikon video-imaging system, consisting of a phase contrast inverted microscope equipped with set of objectives and filters for immunofluorescence and connected to a digital camera and image processor, is used for recording Alexa-568-HDL and Bodipy-LPS uptake. For co-localization experiments, fluorescence is viewed with a Zeiss 510 laser scanning confocal microscope, using a krypton-argon-Omnichrome laser with excitation wavelengths of 488 and 568 nm for Bodipy-LPS and Alexa-568, respectively.
as §2
Competition Experiments. The cells are incubated in 1 μg/ml Bodipy-LPS in the presence increasing concentrations of studied peptides. After 2-h incubation cells are washed with ice-cold PBS and lysed in 0.1% sodium dodecyl sulfate (SDS). The lysate fluorescence is measured by HTS7000 Bioassay reader (Perkin Elmer) using 488 nm for excitation and 533 nm for emission monitoring.

THP-1 cells [5] = assay: LPS-stimulated cytokine production in THP-1 cells (ELISA); assay type: cell-based, human; settings: 10 ng/ml LPS, 24 h
Procedure: as §1
Assays for cytokines and lactate dehydrogenase (LD). […]

CLA-1 [6] = target: T1, CLA-1; assay: Competition for Alexa 488-SAA uptake in CLA-1 overexpressing and mock transfected HeLa cells (FACS); assay type: binding; settings: mock transfected and CLA-1 overexpressing HeLa cells
Procedure: Competition experiments. Cells are cultured for 24 hr in serum free DMEM before experiments. […] For KKB-1 anti-CLA-1 blocking experiments, cells are pre-incubated with KKB-1 rabbit anti-serum (non-immune rabbit serum as a negative control) at a dilution of 1:10 followed by ligand addition to a final concentration of 5 μg/ml and a 1-hour incubation. Cell fluorescence was analyzed by FACS analyses.

Substance	effect on LTA and Gro-EL stimulated IL-8 and IL-6 production (THP-1 cells [1])	SR-BI/CLA-1 ligand property (CLA-1 [2])	uptake in CLA-1 transfected HeLa cells compared with mock-transfected control (CLA-1 [2])	effect on LAL activity of LPS in the absence of bivalent cations [3]	effect on LAL activity of LPS in media containing bivalent cations [3]	effect on Bodipy-LPS uptake (surface binding and internalization) [4]	effect on LPS-stimulated cytokine (IL-8, IL-6, TNF-α) production (THP-1 cells [5])	competition with Alexa 488-SAA for CLA-1 (CLA-1 [6])	effect on LAL activity of LPS in the absence of bivalent cations ([3]; listed as L2D-37P A)	effect on LAL activity of LPS in media containing bivalent cations ([3]; listed as L2D-37P A)	effect on surface bound Bodipy-LPS ([4]; 100× excess, CLA-1 overexpressing cells)	effect on Bodipy-LPS uptake ([4]; 200× excess of unlabeled lipid poor apoA-I, CLA-1 overexpressing HeLa cells)	competition with Alexa 488-SAA for CLA-1 (CLA-1 [6]; listed as ApoA-I)
DWLKAFYDKVAEKLKEAF [Peptide 18A]	low blocking efficiency	less potent SR-BI/CLA-1 ligand	not increased	similarly neutralized LPS activity	had no effect on the LAL activity of LPS in culture media	did not affect LPS-uptake	did not affect LPS-uptake and LPS-stimulated cytokine production; also recorded: Neither L2D-37PA nor 18A, a single helix containing peptide, are effective inhibitors; also recorded: without effect	–	–	–	–	–	–
DWLKAFYDKVAEKLKEAF-P-DWLKAFYDKVAEKLKEAF [L1D-37PA] (DWLKAFYDKVAEKLKEAFPDWLKAFYDKVAEKLKEAF; not fully specified (residue 1)) [Peptide L1D-37PA]	not effective blockers; also recorded: no effect was observed	–	–	–	–	–	not effective blockers	No competition is demonstrated	–	–	–	–	–
DWLKAFYDKVAEKLKEAF-P-DWLKAFYDKVAEKLKEAF [L2D-37PA] (DWLKAFYDKVAEKLKEAFPDWLKAFYDKVAEKLKEAF; also: two D-amino acids per helix, places not given here) [Peptide L2D-37PA]	not effective blockers; also recorded: block neither LPS uptake nor LPS/LTA/Gro-EL induced interleukin (IL-6 and IL-8) secretion; also recorded: no effect was observed	do not bind to SR-BI/CLA-1	not increased	also decreases LPS activity in the absence of bivalent cations	No substantial LPS neutralization; also recorded: had no effect in the presence of bivalent cations	did not affect LPS-uptake; also recorded: does not decrease LPS uptake; also recorded: block neither LPS uptake	did not affect LPS-uptake and LPS-stimulated cytokine production; also recorded: Neither L2D-37PA nor 18A, a single helix containing peptide, are effective inhibitors; also recorded: not effective blockers; also recorded: without effect; also recorded: block neither LPS uptake nor LPS/LTA/Gro-EL induced interleukin (IL-6 and IL-8) secretion	No competition is demonstrated	similarly neutralized LPS activity	had no effect on the LAL activity of LPS in culture media	–	–	–
DWLKAFYDKVAEKLKEAF-P-DWLKAFYDKVAEKLKEAF [L3D-37PA] (DWLKAFYDKVAEKLKEAFPDWLKAFYDKVAEKLKEAF; also: triple D-amino acid substitutions, places not given here) [Peptide L3D-37PA]	not effective blockers; also recorded: no effect was observed	–	–	–	–	–	not effective blockers	No competition is demonstrated	–	–	–	–	–
apoA-I: lipid poor apolipoprotein A-I purified from human plasma	–	–	Increased surface binding and internalization	–	–	–	–	compete with Alexa 488-SAA for CLA-1	–	–	eliminated surface bound Bodipy-LPS	dramatically reduces Bodipy-LPS uptake	competed for CLA-1 binding with Alexa 488-SAA
